The results in this text go back to patent US10934310B2, “Inhibitors of Bruton's tyrosine kinase and method of their use” (JANSSEN PHARMACEUTICA NV, priority 2015, dated 2021).

unphosphorylated-BTK kinase domain (UP-BTK), GST-tagged human BTK (389-659aa), sequence (Q06187 389-659): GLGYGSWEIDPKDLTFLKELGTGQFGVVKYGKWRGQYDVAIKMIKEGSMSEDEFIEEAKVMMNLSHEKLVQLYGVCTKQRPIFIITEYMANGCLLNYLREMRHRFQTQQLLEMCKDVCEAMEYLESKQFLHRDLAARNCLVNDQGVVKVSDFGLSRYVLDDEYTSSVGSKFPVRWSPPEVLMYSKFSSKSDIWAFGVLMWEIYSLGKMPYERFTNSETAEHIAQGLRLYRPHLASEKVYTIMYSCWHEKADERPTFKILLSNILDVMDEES

One assay deals with unphosphorylated-BTK kinase domain (UP-BTK), GST-tagged human BTK (389-659aa) (Homo sapiens (Human), UniProt Q06187). As to the kind of experiment: BTK Kinase Lanthascreen Binding Assay. The settings on record: compound, 50 nM Tracer 236, 2 nM anti-GST antibody, 60 minutes; pIC50 = negative log of the IC50 in molar. The method, then: BTK Kinase Lanthascreen Binding Assay:
A BTK kinase lanthascreen binding assay monitors compound binding to unphosphorylated-BTK kinase domain (UP-BTK), by competing with a fluorescent labeled tracer. […] Data were analyzed using Xlfit™ version 5.3 from ID Business Solutions (Guildford), Microsoft Excel add-in. pIC50 refers to the negative log of the IC50 in molar.
In general terms: Time-resolved FRET reads energy transfer from a long-lived donor to a nearby acceptor.
Take `Cc1cc(Oc2ccccc2)ccc1N1C(=O)Nc2c(C(=O)N[C@@H]3CCC[C@@H]3NC(=O)CN)sc3nccc1c23` (single isomer, unassigned) [Example 131, N-((1R,2S)-2-(2-Aminoacetamido)cyclopentyl)-5-(*S)-(2-methyl-4-phenoxyphenyl)-4-oxo-4,5-dihydro-3H-1-thia-3,5,8-triazaacenaphthylene-2-carboxamide]: the “BTK_I_binding pIC50” value amounted to 7.40. On to `Cc1cc(Oc2ccccc2)ccc1N1C(=O)Nc2c(C(=O)N[C@@H]3CCCC[C@@H]3NC(=O)CN(C)C)sc3nccc1c23` (single isomer, unassigned) [Example 132, N-((1R,2S)-2-(2-(Dimethylamino)acetamido)cyclohexyl)-5-(*S)-(2-methyl-4-phenoxyphenyl)-4-oxo-4,5-dihydro-3H-1-thia-3,5,8-triazaacenaphthylene-2-carboxamide], for which the “BTK_I_binding pIC50” value is listed as 7.27. On the same count and under the same terms, the result for `CNCC(=O)N[C@H]1CCC[C@@H]1NC(=O)c1sc2nccc3c2c1NC(=O)N3c1ccc(Oc2ccccc2)cc1C` (single isomer, unassigned) [Example 133, 5-(*S)-(2-Methyl-4-phenoxyphenyl)-N-((1S,2S)-2-(2-(methylamino)acetamido)cyclopentyl)-4-oxo-4,5-dihydro-3H-1-thia-3,5,8-triazaacenaphthylene-2-carboxamide] reads 7.13; that for `CC(=O)N[C@H]1CCC[C@@H]1NC(=O)c1sc2nccc3c2c1NC(=O)N3c1ccc(Oc2ccccc2)cc1C` (single isomer, unassigned) [Example 134, N-((1S,2S)-2-Acetamidocyclopentyl)-5-(*S)-(2-methyl-4-phenoxyphenyl)-4-oxo-4,5-dihydro-3H-1-thia-3,5,8-triazaacenaphthylene-2-carboxamide], 6.76.

As to `Cc1cc(Oc2ccccc2)ccc1N1C(=O)Nc2c(C(=O)N[C@H]3CCC[C@@H]3N)sc3nccc1c23` (single isomer, unassigned) [Example 135, N-((1S,2S)-2-Aminocyclopentyl)-5-(*S)-(2-methyl-4-phenoxyphenyl)-4-oxo-4,5-dihydro-3H-1-thia-3,5,8-triazaacenaphthylene-2-carboxamide], the “BTK_I_binding pIC50” value was 6.82. Take `CC(=O)N[C@H]1CCCC[C@H]1NC(=O)c1sc2nccc3c2c1NC(=O)N3c1ccc(Oc2ccccc2)cc1C` (single isomer, unassigned) [Example 136, N-((1R,2S)-2-Acetamidocyclohexyl)-5-(*S)-(2-methyl-4-phenoxyphenyl)-4-oxo-4,5-dihydro-3H-1-thia-3,5,8-triazaacenaphthylene-2-carboxamide]: the “BTK_I_binding pIC50” value is 7.52. With `CC(=O)N[C@H]1CCC[C@H]1NC(=O)c1sc2nccc3c2c1NC(=O)N3c1ccc(Oc2ccccc2)cc1C` (single isomer, unassigned) [Example 138, N-((1R,2S)-2-Acetamidocyclopentyl)-5-(*S)-(2-methyl-4-phenoxyphenyl)-4-oxo-4,5-dihydro-3H-1-thia-3,5,8-triazaacenaphthylene-2-carboxamide], the “BTK_I_binding pIC50” value amounted to 7.49. On the same count and under the same terms, the result for `Cc1cc(Oc2ccccc2)ccc1N1C(=O)Nc2c(C(=O)N[C@H]3CCC[C@H]3NC(=O)CN)sc3nccc1c23` (single isomer, unassigned) [Example 154, N-((1S,2R)-2-(2-Aminoacetamido)cyclopentyl)-5-(*S)-(2-methyl-4-phenoxyphenyl)-4-oxo-4,5-dihydro-3H-1-thia-3,5,8-triazaacenaphthylene-2-carboxamide] reads 6.36. With `Cc1cc(Oc2ccccc2)ccc1N1C(=O)Nc2c(C(=O)N[C@H]3CCC[C@H]3NC(=O)CN(C)C)sc3nccc1c23` (single isomer, unassigned) [Example 155, N-((1S,2R)-2-(2-(Dimethylamino)acetamido)cyclopentyl)-5-(*S)-(2-methyl-4-phenoxyphenyl)-4-oxo-4,5-dihydro-3H-1-thia-3,5,8-triazaacenaphthylene-2-carboxamide], the “BTK_I_binding pIC50” value is 6.35. For `CNCC(=O)N[C@@H]1CCC[C@@H]1NC(=O)c1sc2nccc3c2c1NC(=O)N3c1ccc(Oc2ccccc2)cc1C` (single isomer, unassigned) [Example 156, 5-(*S)-(2-Methyl-4-phenoxyphenyl)-N-((1S,2R)-2-(2-(methylamino)acetamido)cyclopentyl)-4-oxo-4,5-dihydro-3H-1-thia-3,5,8-triazaacenaphthylene-2-carboxamide], the “BTK_I_binding pIC50” value worked out at 6.26. Regarding `C=CC(=O)N[C@H]1CCC[C@H]1NC(=O)c1sc2nccc3c2c1NC(=O)N3c1ccc(OC(C)C)cc1C` (single isomer, unassigned) [Example 165, N-((1R,2S)-2-Acrylamidocyclopentyl)-5-(*R)-(4-isopropoxy-2-methylphenyl)-4-oxo-4,5-dihydro-3H-1-thia-3,5,8-triazaacenaphthylene-2-carboxamide], the “BTK_I_binding pIC50” value was 8.30. Still for that read-out and setting: next, `C=CC(=O)N[C@H]1CCC[C@H]1NC(=O)c1sc2nccc3c2c1NC(=O)N3c1cnc(Oc2ccccc2)nc1C` (single isomer, unassigned) [Example 166, N-((1R,2S)-2-Acrylamidocyclopentyl)-5-(*S)-(4-methyl-2-phenoxypyrimidin-5-yl)-4-oxo-4,5-dihydro-3H-1-thia-3,5,8-triazaacenaphthylene-2-carboxamide]: 8.13; `Cc1cc(Oc2ccccc2)ncc1N1C(=O)Nc2c(C(=O)N[C@@H]3CCC[C@@H]3N)sc3nccc1c23` (single isomer, unassigned) [Example 170, N-((1R,2S)-2-Aminocyclopentyl)-5-(*S)-(4-methyl-6-phenoxypyridin-3-yl)-4-oxo-4,5-dihydro-3H-1-thia-3,5,8-triazaacenaphthylene-2-carboxamide]: 7.02; `C=CC(=O)N[C@H]1CCC[C@H]1NC(=O)c1sc2nccc3c2c1NC(=O)N3c1cnc(Oc2ccccc2)cc1C` (single isomer, unassigned) [Example 171, N-((1R,2S)-2-Acrylamidocyclopentyl)-5-(*S)-(4-methyl-6-phenoxypyridin-3-yl)-4-oxo-4,5-dihydro-3H-1-thia-3,5,8-triazaacenaphthylene-2-carboxamide]: 8.19. Still for that read-out and setting: next, `C=CC(=O)N[C@H]1CCCC[C@H]1NC(=O)c1sc2nccc3c2c1NC(=O)N3c1cnc(Oc2ccccc2)cc1C` (single isomer, unassigned) [Example 173, N-((1R,2S)-2-Acrylamidocyclohexyl)-5-(*S)-(4-methyl-6-phenoxypyridin-3-yl)-4-oxo-4,5-dihydro-3H-1-thia-3,5,8-triazaacenaphthylene-2-carboxamide]: 8.02.

The same assay, now with this note: read-out: BTK_I_binding pIC50 (converted).
Take `CC(=O)N[C@@H]1CCC[C@@H]1NC(=O)c1sc2nccc3c2c1NC(=O)N3c1ccc(Oc2ccccc2)cc1C` (single isomer, unassigned) [Example 162, N-((1S,2R)-2-Acetamidocyclopentyl)-5-(*S)-(2-methyl-4-phenoxyphenyl)-4-oxo-4,5-dihydro-3H-1-thia-3,5,8-triazaacenaphthylene-2-carboxamide]: the IC50 is above 1000 nM.
